Source: patent publication US8778688B2, “High-throughput methods for determining pharmacological levels of plasma D-serine” (The Johns Hopkins University, priority 2011, dated 2014)

Experiments:
porcine DAAO = molecular target: T1, porcine DAAO (Sus scrofa, UniProt P00371); assay: DAAO enzyme coupled assay (Amplex Red/HRP, resorufin fluorescence); format: biochemical; conditions: control experiment, CBIO not removed by SPE; data not shown
T1 construct: purchased Sigma
Experimental: (§1) D-serine Measurement—An aliquot (50 μL) of the D-serine eluant from the cation exchange SPE was used as the source of D-serine in the DAAO catalyzed reaction. The DAAO assay is an enzyme coupled assay that was adapted from a procedure that has been reported previously (P. E. Brandish, et al. J Biomol Screen 11 (2006) 481-87). Briefly, the reaction is carried out in Tris buffer (pH 8.5, 100 mM) in the presence of flavin adenine dinucleotide (10 μM). The peroxide formed from the oxidation of D-serine in the presence of porcine DAAO (34 units/mg, Sigma) was made to react with horse radish peroxidase (0.01 mg/ml, Sigma) in the presence of Amplex Red (50 μM, Invitrogen) to make resorufin. Fluorescence of resorufin (ex/em 530/590) was monitored in a SpectraMax Gemini XS fluorimeter for 1 h at 5 min intervals. D-serine concentrations were determined by interpolation from the standard curve of fluorescence vs. D-serine concentration.
The eluant containing D-serine was then used as substrate in the DAAO catalyzed reaction. […] The levels of several D-amino acids in mouse serum have been reported previously and they range from not detectable to 6 μM (A. Hashimoto, et al. Neurosci Lett 152 (1993) 33-36); these concentrations would give a low fluorescence background. […] In any case, background fluorescence was determined from control animals every time an experiment was carried out. […]

DAAO [1] = molecular target: T2, DAAO (Rattus norvegicus, UniProt O35078); conditions: oral co-administration with D-serine, rats; cited from earlier work
T2 construct: host or cells: living rats (whole animal)

[2] = system: prepulse inhibition deficits; conditions: co-administration with D-serine, ddy mice; similar to 10-fold higher doses of D-serine alone; cited from earlier work
DAAO [3] = molecular target: T3, DAAO (Mus musculus, UniProt P18894); assay: Plasma D-serine after oral administration of D-serine ± DAAO inhibitors, determined by SPE/DAAO; format: in vivo; conditions: CD1 mice; for plasma D-serine curve / exposure to D-serine on co-administration: D-serine 326 μmole/kg po plus inhibitor po (CBIO 180, TPC 160 μmoles/kg)
T3 construct: CD1 mice (6-8 wk old, Sprague Dawley, Harlan) were dosed orally with D-serine (30 mg/kg)±compounds; from tissue; host or cells: living CD1 mice (whole animal; DAAO of liver, kidney, brain)
Experimental: Plasma was collected at 0.5, 1, 2, 3, and 6 hours after dosage. D-serine was extracted from plasma by SPE and its levels determined by the DAAO reaction. FIG. 2(A) depicts D-serine alone, FIG. 2(B) depicts CBIO alone, D-serine±CBIO and FIG. 2(C) depicts D-serine±TPC. […] Each data point is the average of data from 3 separate mice; error bars correspond to ±S.E.M. D-serine standard curves were constructed for each experiment.
Animals—CD1 mice (6-8 wk old, Sprague Dawley, Harlan) were dosed orally with D-serine (30 mg/kg)±compounds. Animals were sacrificed 0.5, 1, 2, 3 and 6 h after dosing and blood was collected by cardiac puncture bleeds. Plasma was prepared and frozen at −80° C. until use.
(§2) Cation Exchange SPE—D-serine was added to normal mouse plasma at different concentrations to generate a standard curve. Plasma (50 μL) containing D-serine or plasma from D-serine treated animals was diluted in 200 μL 0.03 N HCl (pH 1.5). […] Acidified samples were then added to a cation exchange resin (BioRad AG 50W-X4, 200 μL resin equilibrated with 0.03 N HCl) in deep well spin plates (Harvard Apparatus). Minicolumns were centrifuged for 2 min at 200×g. The resin was washed twice with 250 μL 0.03 N HCl and 3 times with 250 μL 100 mM Tris, pH 8.5. D-serine was eluted with 2 times 250 μL 100 mM Tris, pH 13.
as §1, with “The DAAO assay is an enzyme coupled assay that was adapted from a procedure that has been reported previously (P. E. Brandish, et al. J Biomol Screen 11 (2006) 481-87).” left out, “concentration. […]” for “concentration.”

[4] = cited from earlier work
[5] = system: N-methyl-D-aspartate (NMDA) receptor; conditions: multiple clinical studies; high doses (2 g per day po); cited from earlier work
[6] = Plasma D-serine time profile after oral D-serine, determined by SPE/DAAO; format: in vivo, CD1 mice; conditions: D-serine 326 μmoles/kg po
Experimental: […] Animals were sacrificed 0.5, 1, 2, 3 and 6 h after dosing and blood was collected by cardiac puncture bleeds. Plasma was prepared and frozen at −80° C. until use.
as §2
D-serine Measurement—An aliquot (50 μL) of the D-serine eluant from the cation exchange SPE was used as the source of D-serine in the DAAO catalyzed reaction. The DAAO assay is an enzyme coupled assay that was adapted from a procedure that has been reported previously (P. E. Brandish, et al. J Biomol Screen 11 (2006) 481-87). […] Fluorescence of resorufin (ex/em 530/590) was monitored in a SpectraMax Gemini XS fluorimeter for 1 h at 5 min intervals. D-serine concentrations were determined by interpolation from the standard curve of fluorescence vs. D-serine concentration. […]

T3 sequence (P18894 whole entry): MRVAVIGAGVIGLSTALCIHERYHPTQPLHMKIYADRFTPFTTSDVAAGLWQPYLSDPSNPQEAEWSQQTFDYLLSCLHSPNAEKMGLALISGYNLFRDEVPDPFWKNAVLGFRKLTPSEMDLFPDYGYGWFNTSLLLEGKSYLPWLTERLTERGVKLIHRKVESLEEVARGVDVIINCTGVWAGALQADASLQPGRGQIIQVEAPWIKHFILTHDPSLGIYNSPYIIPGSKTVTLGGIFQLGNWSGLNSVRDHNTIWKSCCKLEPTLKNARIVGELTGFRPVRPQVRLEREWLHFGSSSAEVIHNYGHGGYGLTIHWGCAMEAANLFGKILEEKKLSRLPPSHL
T2 sequence (O35078 whole entry): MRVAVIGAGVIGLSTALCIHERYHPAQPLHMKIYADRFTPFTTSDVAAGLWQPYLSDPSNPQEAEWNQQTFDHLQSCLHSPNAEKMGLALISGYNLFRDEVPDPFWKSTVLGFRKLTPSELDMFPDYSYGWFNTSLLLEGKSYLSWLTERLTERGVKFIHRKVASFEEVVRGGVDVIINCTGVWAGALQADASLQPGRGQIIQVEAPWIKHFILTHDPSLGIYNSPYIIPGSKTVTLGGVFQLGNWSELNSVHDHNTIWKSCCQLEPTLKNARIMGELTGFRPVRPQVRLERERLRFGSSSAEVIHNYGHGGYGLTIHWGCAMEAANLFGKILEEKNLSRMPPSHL
T1 sequence (P00371 whole entry): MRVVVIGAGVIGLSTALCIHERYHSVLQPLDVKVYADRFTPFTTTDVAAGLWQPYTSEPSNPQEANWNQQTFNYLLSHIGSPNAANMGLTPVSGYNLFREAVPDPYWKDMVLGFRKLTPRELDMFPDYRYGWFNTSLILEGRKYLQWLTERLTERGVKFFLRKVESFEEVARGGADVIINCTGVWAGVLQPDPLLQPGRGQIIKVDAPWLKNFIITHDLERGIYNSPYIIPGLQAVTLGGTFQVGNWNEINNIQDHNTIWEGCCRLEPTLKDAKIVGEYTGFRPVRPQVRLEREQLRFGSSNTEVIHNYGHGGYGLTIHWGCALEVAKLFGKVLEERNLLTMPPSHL

| SMILES | oxidation of D-serine by DAAO (porcine DAAO) | brain levels of D-serine compared to D-serine alone (DAAO [1]) | plasma levels of D-serine compared to D-serine alone (DAAO [1]) | prepulse inhibition deficits [2] | plasma D-serine levels when inhibitor administered in the absence of D-serine (DAAO [3]; CBIO alone) | plasma D-serine curve / exposure to D-serine on co-administration (DAAO [3]) | pKa of the carboxylic acid [4] | treating the positive, negative and cognitive deficits of schizophrenia [5] | time point showing the highest D-serine plasma concentration ([6]; first time point, Tmax likely earlier) [h] | half-life ([6]; mouse, CD1 mice, plasma, read-out: estimated half-life of D-serine in mouse plasma) [min] |
| --- | --- | --- | --- | --- | --- | --- | --- | --- | --- | --- |
| Oc1noc2ccc(Cl)cc12 [CBIO, 5-chloro-benzo[d]isoxazol-3-ol] | completely inhibited | significantly enhanced | significantly enhanced | normalized | the same as background levels | overall curve was shifted to the right | – | – | – | – |
| N[C@H](CO)C(=O)O [D-serine] | – | – | – | – | – | – | 2.1 | effective | 0.5 | ~50 |
| O=C(O)c1cc2sccc2[nH]1 [TPC, 4H-thieno[3,2-b]pyrrole-5-carboxylic acid] | – | – | – | – | – | shifted the exposure of D-serine in plasma | – | – | – | – |
